The supplement of paper PMC10307832

Legend:
Experiment in all cases: relative viability (nuclei count vs DMSO), 5 days (fraction); higher = more cells survive
Tanzisertib + Bortezomib = compound: O[C@H]1CC[C@H](Nc2ncc3nc(Nc4c(F)cc(F)cc4F)n([C@H]4CCOC4)c3n2)CC1 [Tanzisertib] + CC(C)C[C@H](NC(=O)[C@H](Cc1ccccc1)NC(=O)c1cnccn1)B(O)O [Bortezomib] (partner 0.002 µM)
Outline: (§1)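 Medians of duplicate plates are given as relative viability. That measure is the nuclei count in treated wells divided by the count in vehicle wells. Counts were taken on 4× images of lung cancer cell lines in 1536-well plates, 5 days after pin-tool dosing the day after seeding with one drug alone or a fixed anchor-drug dose plus five library-drug doses (not always all listed) in √10 steps.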

[1] = compound: C[C@@H](N)c1ccc(C(=O)Nc2ccnc3[nH]ccc23)cc1 + COc1cc2c(Oc3ccc(NC(=O)C4(C(=O)Nc5ccc(F)cc5)CC4)cc3F)ccnc2cc1OCCCN1CCOCC1 [Foretinib] (partner 0.25 µM)
Outline: as §1

Tanzisertib + Luminespib = compound: O[C@H]1CC[C@H](Nc2ncc3nc(Nc4c(F)cc(F)cc4F)n([C@H]4CCOC4)c3n2)CC1 [Tanzisertib] + CCNC(=O)c1noc(-c2cc(C(C)C)c(O)cc2O)c1-c1ccc(CN2CCOCC2)cc1 [Luminespib] (partner 0.01 µM)
Outline: as §1

[2] = compound: C1CNCCC1C2=CC(=NN2)C3=CC=NC=C3 + COc1cc2c(Oc3ccc(NC(=O)C4(C(=O)Nc5ccc(F)cc5)CC4)cc3F)ccnc2cc1OCCCN1CCOCC1 [Foretinib] (partner 0.25 µM)
Outline: as §1

Cell Line	relative viability (Tanzisertib + Bortezomib; first compound 0.08 µM)	relative viability (Tanzisertib + Bortezomib; first compound 0.253 µM)	relative viability (Tanzisertib + Bortezomib; first compound 0.8 µM)	relative viability (Tanzisertib + Bortezomib; first compound 2.53 µM)	relative viability (Tanzisertib + Bortezomib; first compound 8 µM)	relative viability ([1]; first compound 0.04 µM)	relative viability ([1]; first compound 0.1265 µM)	relative viability ([1]; first compound 0.4 µM)	relative viability ([1]; first compound 4 µM)	relative viability (Tanzisertib + Luminespib; first compound 0.08 µM)	relative viability (Tanzisertib + Luminespib; first compound 0.253 µM)	relative viability (Tanzisertib + Luminespib; first compound 0.8 µM)	relative viability (Tanzisertib + Luminespib; first compound 2.53 µM)	relative viability (Tanzisertib + Luminespib; first compound 8 µM)	relative viability ([2]; first compound 0.08 µM)	relative viability ([2]; first compound 0.8 µM)	relative viability ([2]; first compound 2.53 µM)	relative viability ([2]; first compound 8 µM)	relative viability ([1]; first compound 1.265 µM)
NCI-H23	1.18	0.979	0.875	1.11	1.17	0.985	1.09	0.981	1.01	0.262	0.227	0.203	0.228	0.199	0.766	1.19	1.25	1.11	
NCI-H1993	1.14	1.07	1.12	1.04	0.857	0.785	0.732	0.781	0.714	0.879	0.783	0.915	0.714	1	0.857	0.744	0.887	0.808	0.924
HCC-827	0.952	1.06	1.12	1.04	0.701	1.1	1.13	1.09	0.945	0.668	0.594	0.642	0.588	0.259	1.04	1.07	1.01	1.12	1.11
NCI-H650	0.868	1	0.87	0.945	0.366		0.991	1.03	0.712	0.725	0.915	0.884	0.936	0.855	1	0.924	1.06	0.998	0.899
CAL-12T	1.04	1.2	1.18	1.01	0.825	1.36	1.27	1.13	0.909	0.383	0.409	0.376	0.731	0.247	1.09	1.11	1.22	1.06	1.27
NCI-H838	1.24	0.971	0.807	0.778	0.643	0.965	0.957	0.919	0.409	0.293	0.34	0.277	0.248	0.209	1.03	0.996	1.08	0.996	0.634
NCI-H2228	1.11	0.948	1.08	0.801	0.721	1.03	0.743	1.02	0.866	0.2	0.188	0.173	0.162	0.132	0.871	0.929	0.939	0.911	0.911
RERF-LC-KJ	1.17	1.01	1.04	1.07	1.02	0.899	0.811	0.9	0.909	1.29	1.17	1.29	1.16	1.22	0.871	0.942	0.837	0.924	0.899
NCI-H661	0.859	0.64	0.874	0.567	0.795	0.947	1.09	1.03	0.855	0.903	0.943	0.902	0.952	0.955	1.1	1.05	1.01	1.02	0.923
SK-LU-1	1.07	1.19	1.3	1.18	0.493	0.96	0.804	0.82	0.573	0.229	0.231	0.189	0.181	0.18	0.813	0.946	0.951	0.885	0.732
A-427	1.09	0.938	1.01	0.96	0.927	1.13	1	1.14	1.07	0.941	0.893	0.942	0.972	1.07	1.11	1.21	1.13	1.04	
